Reference: US11752169B2, “Treatment of pain with polysulfated polysaccharides” (PARADIGM BIOPHARMACEUTICALS LTD., priority 2018, dated 2023)

What was measured:
Format in all cases: cell-based, human
[1] = system: proNGF; experiment: proNGF ELISA of culture supernatants of osteocyte-like cultures treated with rhTNF and PPS
From the text: In order to maximise the clinical relevance of the findings from this study, the effects of PPS were to be tested on osteocyte-like cultures derived by differentiation in vitro for a period of 28 days from cells isolated from the subchondral bone of the proximal tibia of three patients with advanced knee OA who underwent total knee arthroplasty (TKA) surgery (KOA: Group 1). As a comparator group, cells isolated from the proximal femur of three patients who underwent total hip arthroplasty (THA) for neck of femur fracture (NOF: Group 2), were similarly differentiated and tested. […]
Cryopreserved cells from each donor (all at passage 0 or 1) were thawed and cultured for 10d in T75 cm^2 tissue culture flasks. Once confluent, cells were removed by collagenase/dispase digestion, washed by centrifugation, counted and adjusted to 5×10^5 cells/mL. […]
To examine further the effects of PPS on NGF expression, osteocyte-like cultures derived from three KOA and three NOF donor osteoblasts were treated after 3 days pre-treatment with differing concentrations of PPS, with rhTNFα in the absence or presence of the pre-treatment concentration of PPS. […] Therefore, in this study proNGF levels were also measured in the treated supernatants, as described in Materials and Methods.

[2] = system: IL-6 mRNA; experiment: real-time RT-PCR for IL-6 mRNA in KOA osteocyte-like cultures; settings: PPS 1 μg/mL + rhTNFα 1 ng/mL, 48 h (FIG. 17)
Experimental: Cryopreserved cells from each donor (all at passage 0 or 1) were thawed and cultured for 10d in T75 cm^2 tissue culture flasks. Once confluent, cells were removed by collagenase/dispase digestion, washed by centrifugation, counted and adjusted to 5×10^5 cells/mL. Cells were then seeded into either 12-well tissue culture trays or into 8-well chamber slides, at 1×10^5 and 2×10^4 cells/well, respectively. After 24 h, media were replaced with osteogenic differentiation medium, consisting of αMEM, 5% v/v foetal calf serum (FCS), 1.8 mM potassium dihydrogen phosphate (KH2PO4), 100 μM Ascorbate-2-phosphate (As2P), 10 mM HEPES, 10^−8 M Dexamethasone and 0.2 mM L-Glutamine. During the differentiation process, samples were collected at days 3, 14 and 28 in Trizol reagent for total RNA preparation and gene expression analysis (see below). […]
Following three days of pre-treatment of osteocyte-like cultures with PPS and a further 48 h treatment period, total RNA was isolated for the purposes of analysing gene expression using real-time RT-PCR. While the quality of the RNA isolated from all cultures appeared to be high, as adjudged by Nanodrop micro-spectrophotometry showing the ratio of absorbance at 260 nm/280 nm generally being between 1.9 and 2.0, there was a consistent inability to generate complementary DNA (cDNA) from any samples exposed to 5 or 50 μg/mL PPS, except in one or two samples. […]

[3] = system: NGF mRNA; experiment: real-time RT-PCR for NGF mRNA in osteocyte-like cultures
Experimental: (§1) FIG. 23. Effects of combinations of rhTNF and PPS on NGF gene expression in osteocyte-like cultures. Human differentiated osteocyte-like cultures were either untreated or pretreated with PPS (0.1 or 1.0 μg/mL) for 24 h, then with or without rhTNFα (1 ng/mL) for a further 48 h, and then real-time RT-PCR was performed for NGF mRNA. Data are mean+SD of triplicate real-time RT-PCR reactions normalised to the mRNA expression of the housekeeping gene ACTB.
as §1, with “28.” for “23.”
Cryopreserved cells from each donor (all at passage 0 or 1) were thawed and cultured for 10d in T75 cm^2 tissue culture flasks. Once confluent, cells were removed by collagenase/dispase digestion, washed by centrifugation, counted and adjusted to 5×10^5 cells/mL. Cells were then seeded into either 12-well tissue culture trays or into 8-well chamber slides, at 1×10^5 and 2×10^4 cells/well, respectively. After 24 h, media were replaced with osteogenic differentiation medium, consisting of αMEM, 5% v/v foetal calf serum (FCS), 1.8 mM potassium dihydrogen phosphate (KH2PO4), 100 μM Ascorbate-2-phosphate (As2P), 10 mM HEPES, 10^−8 M Dexamethasone and 0.2 mM L-Glutamine. During the differentiation process, samples were collected at days 3, 14 and 28 in Trizol reagent for total RNA preparation and gene expression analysis (see below). Cultures seeded into chamber slides were examined for in vitro mineralisation using the Alizarin Red staining technique, as previously described.
PPS was manufactured by bene pharmaChem GmbH & Co. KG, Geretstried, Germany. This was dissolved in sterile PBS as a stock solution at 1.0 mg/mL. Differentiated cells were either untreated or pre-treated with final concentrations of PPS at 1, 5 or 50 μg/mL in culture medium for 72 h. The tested doses of PPS were based on the effective and maximally active levels published in a previous study. Media were then replaced with the same concentrations of PPS with or without the addition of recombinant human (rh) TNFα (1 ng/mL) and then cultured for a further 48 h. Culture supernatants were collected and total RNA and cDNA prepared, as described below. This generated 8 conditions (Untreated, TNF, PPS1, PPS5, PPS50, TNF+PPS1, TNF+PPS5, TNF+PPS50) from 6 donors.
Total RNA was prepared from Trizol lysates, according to the manufacturer's instructions, with the exception that due to evidence for PPS interference in the generation of assayable cDNA, RNA precipitates were washed 3 times in 75% ethanol instead of the usual single wash step, in an attempt to remove residual PPS. RNA preparations were tested for yield and purity using a Nanodrop microvolume spectrophotometer (Thermo Fisher). One microgram of RNA from each sample was reverse transcribed using a Superscript™ II kit (Thermo Fisher), as per manufacturer's instructions. Real-time RT-PCR was performed for genes including Nerve Growth Factor (NGF), its receptors NTRK1 (TRKA) and NGFR (P75NTR), MMP13, Cyclooxygenase-2 (COX-2), Interleukin-6 (IL-6) RANKL, OPG, OCN, DMP1 and SOST, relative to housekeeping gene (18S, ACTB) expression. […]

In the case of Sodium Pentosan Polysulfate [PPS], the “effect of rhTNF on proNGF secretion” value ([1]; KOA and NOF cultures, rhTNFα 1 ng/mL 48 h after 3 days PPS pre-treatment, all PPS concentrations tested) is reported as “strongly reversed”, the “basal proNGF secretion” value ([1]; all donors' cells (KOA and NOF), all PPS concentrations tested (1, 5, 50 μg/mL)) is reported as “strongly suppressed” and the “effect of rhTNFα on IL-6 mRNA expression” value [2] is reported as “inhibited”. For the same substance, the “NGF mRNA levels, PPS in combination with rhTNFα” value ([3]; KOA1 and KOA2 cultures, PPS 1 μg/mL + rhTNFα 1 ng/mL, 48 h, relative to 18S rRNA (FIG. 16)) was “strongly suppressed”, the “NGF mRNA levels, PPS alone” value ([3]; KOA1 and KOA2 cultures, PPS 1 μg/mL, 72 h pre-treatment + 48 h, relative to 18S rRNA (FIG. 16)) was “strongly suppressed” and the “NGF expression (mRNA) in the presence of TNFα” value ([3]; PPS at 1 μg/mL, 24 h pre-treatment, rhTNFα 1 ng/mL 48 h, normalised to ACTB (FIG. 23)) was “significantly reduced”. For the same substance, the “NGF expression (mRNA) in the presence of TNFα” value ([3]; PPS at 1 mg/mL (so in the source), FIG. 28, normalised to ACTB) was “significantly reduced” and the “basal NGF mRNA levels” value ([3]; PPS at both 0.1 and 1 μg/mL, 24 h pre-treatment + 48 h, normalised to ACTB (FIG. 23)) was “no apparent effect”.
